From patent US12485263B2, “Device for delivering an antimicrobial composition into a medical device” (ICU Medical, Inc., priority 2018, dated 2025)

Tests used:
[1] = test system: Gram positive bacteria, Gram negative bacteria, and fungi; assay: Kill of microbes by dissolved chlorhexidine / chlorhexidine acetate (stated, no test protocol)
[2] = 60 kilogram person; cited from earlier work

Question: With `CC(=O)O.CC(=O)O.NC(=N\CCCCCC/N=C(N)/N=C(\N)Nc1ccc(Cl)cc1)/N=C(\N)Nc1ccc(Cl)cc1` [chlorhexidine acetate] as the molecule, how does the “concentration that can quickly kill most microbes” value ([1]; Gram positive bacteria, Gram negative bacteria, and fungi) read?
Answer: greater than 200 μg/mL

Question: And the “time to kill microbes” value ([1]; at concentration greater than 200 μg/mL, in many cases)?
Answer: under 1 minute

Question: And the “dose considered safe for direct injection into bloodstream” value [2]?
Answer: ≥ 500 µg
